Experimental data: the supplement of paper PMC10307832

Tests used:
Experiment in all cases: relative viability (nuclei count vs DMSO), 5 days (fraction); higher = more cells survive
[1] = compound: CCN(CCO)CCCC(C)Nc1ccnc2cc(Cl)ccc12 [Hydroxychloroquine] + CC(=O)c1c(C)c2cnc(Nc3ccc(N4CCNCC4)cn3)nc2n(C2CCCC2)c1=O [Palbociclib] (partner 0.5 µM)
Outline: (§1)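 Lung cancer cell lines were pin-tool dosed in 1536-well plates on the day after seeding, with either a lone drug or a fixed anchor-drug dose plus five library-drug doses (not always all listed) in √10 steps. Nuclei were counted on 4× images after 5 days. Relative viability is the ratio of treated-well to vehicle-well nuclei counts, with each value a median of duplicate plates.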

[2] = compound: CCN(CCO)CCCC(C)Nc1ccnc2cc(Cl)ccc12 [Hydroxychloroquine] + Cc1nc(NC(=O)N2CCC[C@H]2C(N)=O)sc1-c1ccnc(C(C)(C)C(F)(F)F)c1 [Alpelisib] (partner 2 µM)
Outline: as §1

[3] = compound: CCN(CCO)CCCC(C)Nc1ccnc2cc(Cl)ccc12 [Hydroxychloroquine] + Nc1nc2[nH]cc(CCc3ccc(C(=O)N[C@@H](CCC(=O)O)C(=O)O)cc3)c2c(=O)[nH]1 [Pemetrexed] (partner 0.2 µM)
Outline: as §1

[4] = compound: CCN(CCO)CCCC(C)Nc1ccnc2cc(Cl)ccc12 [Hydroxychloroquine] + O=C(c1cc(Cc2n[nH]c(=O)c3ccccc23)ccc1F)N1CCN(C(=O)C2CC2)CC1 [Olaparib] (partner 8 µM)
Outline: as §1

Cell Line	relative viability ([1]; first compound 0.5 µM)	relative viability ([1]; first compound 1.581 µM)	relative viability ([1]; first compound 5 µM)	relative viability ([1]; first compound 15.81 µM)	relative viability ([1]; first compound 50 µM)	relative viability ([2]; first compound 0.5 µM)	relative viability ([2]; first compound 1.581 µM)	relative viability ([2]; first compound 5 µM)	relative viability ([2]; first compound 15.81 µM)	relative viability ([2]; first compound 50 µM)	relative viability ([3]; first compound 0.5 µM)	relative viability ([3]; first compound 1.581 µM)	relative viability ([3]; first compound 5 µM)	relative viability ([3]; first compound 15.81 µM)	relative viability ([3]; first compound 50 µM)	relative viability ([4]; first compound 0.5 µM)	relative viability ([4]; first compound 1.581 µM)	relative viability ([4]; first compound 5 µM)	relative viability ([4]; first compound 15.81 µM)	relative viability ([4]; first compound 50 µM)
NCI-H23	0.499	0.487	0.548	0.464	0.477	0.863	0.725	0.701	0.609	0.57	1.21	0.663	0.609	0.56	0.74	0.365	0.36	0.322	0.309	0.204
NCI-H322M	0.484	0.43	0.431	0.482	0.457	0.864	0.814	0.864	0.758	0.769	0.639	0.609	0.601	0.608	0.592	0.741	0.75	0.753	0.725	0.751
NCI-H358	0.13	0.126	0.137	0.122	0.137	0.832	0.698	0.775	0.91	0.8	0.164	0.166	0.179	0.161	0.179	0.675	0.585	0.522	0.973	0.571
NCI-H441	0.217	0.187	0.185	0.192	0.204	–	0.627	0.816	0.746	0.625	0.234	0.258	0.284	0.227	0.278	0.543	0.551	0.498	0.547	0.553
NCI-H460	0.129	0.148	0.149	0.115	0.227	0.609	0.428	0.439	0.421	0.52	0.0632	0.055	0.0674	0.0549	0.0607	0.409	0.431	0.387	0.479	0.334
NCI-H520	0.232	0.205	0.231	0.199	0.239	1.04	0.776	0.901	0.999	0.89	0.76	0.729	0.596	0.657	0.798	0.344	0.354	0.304	0.337	0.364
NCI-H647	0.418	0.439	0.41	0.282	0.366	1.12	1.06	1.1	1.02	1.13	0.186	0.176	0.202	0.196	0.182	0.521	0.531	0.591	0.626	0.602
NCI-H650	0.341	0.288	0.3	0.35	0.311	1.08	1.17	–	1.1	1.17	0.979	0.868	0.966	1.06	0.889	0.423	0.364	0.326	0.374	0.315
NCI-H661	0.404	0.364	0.413	0.377	0.403	0.665	0.567	0.795	0.547	0.481	0.962	0.904	0.91	0.877	0.872	0.782	0.695	0.743	0.684	0.69
NCI-H838	0.237	0.197	0.242	0.194	0.22	1.04	0.946	0.983	1.04	1.08	0.238	0.248	0.264	0.243	0.253	0.783	0.801	0.804	0.803	0.809
NCI-H1355	0.41	0.365	0.392	0.387	0.379	0.81	0.744	0.837	0.833	0.86	1.11	0.997	0.906	1.05	1.14	0.796	0.685	0.661	0.709	0.782
NCI-H1395	0.652	0.556	0.626	0.608	0.563	0.979	0.899	0.975	1.09	0.954	0.83	0.936	0.717	0.793	0.779	0.46	0.467	0.471	0.512	0.423
NCI-H1437	0.291	0.328	0.328	0.295	0.336	0.909	0.926	1.05	1	1.05	0.326	0.314	0.324	0.33	0.321	0.604	0.665	0.65	0.653	0.652
NCI-H1651	0.536	0.5	0.517	0.567	0.54	0.963	0.926	1.05	1.04	0.989	0.628	0.626	0.602	0.597	0.449	0.178	0.193	0.191	0.18	0.197
NCI-H1666	0.651	0.67	0.653	0.646	0.622	0.99	0.996	0.873	0.882	0.668	0.878	0.765	0.846	0.755	0.844	0.669	0.727	0.719	0.749	0.693
NCI-H1734	0.316	0.296	0.37	0.305	0.362	0.674	0.696	0.362	0.781	0.668	0.46	0.398	0.408	0.427	0.427	0.525	0.601	0.626	0.616	0.635

Cell Line	relative viability ([1]; first compound 0.5 µM)	relative viability ([1]; first compound 1.581 µM)	relative viability ([1]; first compound 5 µM)	relative viability ([1]; first compound 15.81 µM)	relative viability ([1]; first compound 50 µM)	relative viability ([2]; first compound 0.5 µM)	relative viability ([2]; first compound 1.581 µM)	relative viability ([2]; first compound 5 µM)	relative viability ([2]; first compound 15.81 µM)	relative viability ([2]; first compound 50 µM)	relative viability ([3]; first compound 0.5 µM)	relative viability ([3]; first compound 1.581 µM)	relative viability ([3]; first compound 5 µM)	relative viability ([3]; first compound 15.81 µM)	relative viability ([3]; first compound 50 µM)	relative viability ([4]; first compound 0.5 µM)	relative viability ([4]; first compound 1.581 µM)	relative viability ([4]; first compound 5 µM)	relative viability ([4]; first compound 15.81 µM)	relative viability ([4]; first compound 50 µM)
NCI-H1755	0.459	0.398	0.445	0.443	0.475	0.925	0.877	0.908	0.956	0.911	0.573	0.426	0.42	0.386	0.438	0.861	0.841	0.841	0.912	0.827
NCI-H1792	0.696	0.683	0.584	0.657	0.68	0.677	0.698	0.65	0.392	0.664	0.694	0.831	0.755	0.641	0.859	0.461	0.413	0.195	0.439	0.433
NCI-H1793	0.331	0.311	0.372	0.325	0.312	0.832	0.738	0.635	0.736	0.749	0.982	0.913	0.753	0.628	0.632	0.866	0.814	0.878	0.906	0.728
NCI-H1915	0.532	0.495	0.559	0.568	0.542	1.03	1.08	1.06	1.13	1.07	0.531	0.514	0.505	0.524	0.521	0.244	0.243	0.262	0.275	0.265
NCI-H1944	0.301	0.314	0.319	0.29	0.346	0.797	0.778	0.858	0.794	0.848	0.691	0.586	0.531	0.586	0.648	0.417	0.445	0.416	0.414	0.402
NCI-H1975	0.47	0.53	0.603	0.615	0.789	0.642	0.668	0.631	0.697	0.75	0.281	0.325	0.309	0.297	0.301	0.816	0.767	0.856	0.85	0.911
NCI-H1993	0.6	0.575	0.692	0.662	0.693	0.632	0.712	0.789	0.71	0.692	0.577	0.507	0.623	0.601	0.597	1.24	1.04	1.14	0.61	1.11
NCI-H2009	0.195	0.209	0.212	0.237	0.197	1.19	1.24	1.26	1.17	1.09	1.07	0.991	1.02	1.07	1.01	0.672	0.72	0.7	0.698	0.695
NCI-H2023	0.376	0.431	0.349	0.396	0.386	0.547	0.47	0.636	0.605	0.601	0.267	0.22	0.246	0.238	0.295	0.566	0.405	0.501	0.479	0.466
NCI-H2085	0.473	0.422	0.48	0.484	0.455	0.91	0.998	0.973	0.914	0.917	0.885	0.773	0.838	0.809	0.9	0.74	0.769	0.817	0.739	0.774
NCI-H2087	0.189	0.227	0.231	0.189	0.213	1.03	1.06	0.87	1.08	1.02	0.634	0.669	0.7	0.709	0.771	0.596	0.709	0.683	0.756	0.511
NCI-H2126	0.34	0.341	0.34	0.333	0.379	0.727	0.738	0.73	0.775	0.794	0.709	0.636	0.666	0.653	0.716	0.98	0.921	0.9	0.975	0.926
NCI-H2170	0.379	0.401	0.415	0.4	0.421	0.832	0.797	0.844	0.801	0.835	0.341	0.265	0.255	0.233	0.29	0.647	0.568	0.679	0.528	0.734
NCI-H2228	0.322	0.871	0.857	0.706	0.873	0.705	0.546	0.682	0.549	0.735	0.329	0.352	0.348	0.311	0.331	0.716	0.75	0.575	0.653	0.623
NCI-H2347	0.457	0.418	0.414	0.515	0.383	1.06	0.904	1.02	1.11	0.956	0.481	0.401	0.444	0.413	0.452	0.594	0.563	0.588	0.608	0.541
NCI-H2405	0.557	0.471	0.576	0.516	0.516	0.961	0.592	0.879	0.856	0.845	1.07	1.05	0.984	0.515	1.03	0.934	0.87	0.836	0.886	0.861
